Laboratory results taken from PMC7822874, “Chemoprotective antimalarials identified through quantitative high-throughput screening of Plasmodium blood and liver stage parasites” (Scientific Reports, 2021).

system: Plasmodium falciparum Dd2 asexual blood stage parasites; assay: microbe, parasite or virus in culture; set-up: species or system Plasmodium falciparum Dd2 in human erythrocytes; single determination (one 11-point concentration-response curve); conditions: Plasmodium falciparum, DD2, Erythrocyte, 72 h

| SMILES | AC50 |
| --- | --- |
| Cc1ccccc1CN1C(=O)C(C)N=C(c2ccccc2)c2ccccc21 (stereo not drawn) [NCGC00140509-01] | 15 µM |

same assay, conditions: Plasmodium falciparum, DD2, Erythrocyte, 72 h; read-out: AC50

| SMILES | AC50 |
| --- | --- |
| CC(NC(=O)Cn1c(-c2cccs2)cc2cc(F)ccc21)c1ccccc1 (stereo not drawn) [NCGC00123911-01] | 2.66 µM |
| COc1ccc(Nc2cc(C)c3cc(NC(=O)c4cc(OC)cc(OC)c4)ccc3n2)cc1 [NCGC00124306-01] | 0.75 µM |
| COc1ccc(Nc2cc(C)c3cc(NC(=O)Cc4c(F)cccc4Cl)ccc3n2)cc1 [NCGC00124312-01] | 5.31 µM |
| Cc1cc(Nc2cccc(C(F)(F)F)c2)nc2ccc(NC(=O)c3cncc(Br)c3)cc12 [NCGC00124348-01] | 2.37 µM |
| CCOc1cc(C(=O)Nc2ccc3nc(Nc4cccc(Cl)c4)cc(C)c3c2)cc(OCC)c1OCC [NCGC00124408-01] | 1.88 µM |
| CCN1CCN(C(=O)c2c(C)nn(-c3ccc(F)cc3)c2-n2cccc2)CC1 [NCGC00125054-01] | 9.44 µM |
| CCc1c(C)c2ccc3c(c2oc1=O)CN(Cc1ccccc1)CO3 [NCGC00125086-01] | 2.11 µM |
| Cc1c(Cl)cccc1Nc1nn2c(=O)c3ccc(C(=O)NCCc4ccccc4)cc3nc2s1 [NCGC00125565-01] | 7.5 µM |
| Cc1c(Cl)cccc1Nc1nn2c(=O)c3ccc(C(=O)N(C)Cc4ccccc4)cc3nc2s1 [NCGC00125571-01] | 16.8 µM |
| CC1=C(C(=O)Nc2ccccc2)C(c2cc(Br)ccc2F)n2ncc(C(=O)Nc3ccccc3)c2N1 (stereo not drawn) [NCGC00126266-01] | 1.68 µM |
| Cc1ccccc1NC(=O)Nc1ccc2nc(N3CCN(C)CC3)cc(C)c2c1 [NCGC00126513-01] | 1.5 µM |
| COc1ccccc1N1CCN(CCCNC(=O)c2cnn(-c3ccccc3Cl)c2C2CCN(C(=O)OC(C)(C)C)CC2)CC1 [NCGC00126752-01] | 2.37 µM |
| COc1ccccc1CN1CCC(CNC(=O)c2cnn(-c3ccc(Cl)cc3)c2C2CCN(C(=O)OC(C)(C)C)CC2)CC1 [NCGC00126796-01] | 2.66 µM |
| CCOC(=O)c1c(C)oc2nc(C)nc(Nc3ccc(CC)cc3)c12 [NCGC00126813-01] | 7.5 µM |
| COc1ccccc1CN1CCC(CNC(=O)c2cnn(-c3cccc(Cl)c3)c2C2CCN(C(=O)OC(C)(C)C)CC2)CC1 [NCGC00126858-01] | 7.5 µM |
| COc1ccccc1N1CCN(CCCNC(=O)c2cnn(-c3cccc(Cl)c3)c2C2CCN(C(=O)OC(C)(C)C)CC2)CC1 [NCGC00126882-01] | 2.11 µM |
| Cc1ccc(CN2CCC(CNC(=O)c3cnn(-c4ccc(C)cc4)c3C3CCN(C(=O)OC(C)(C)C)CC3)CC2)cc1 [NCGC00126945-01] | 8.41 µM |
| Cc1ccc(-n2ncc(C(=O)N3CCN(c4cc(Cl)ccc4C)CC3)c2C2CCN(C(=O)OC(C)(C)C)CC2)cc1 [NCGC00126953-01] | 8.41 µM |
| Fc1ccc(N2CCN(Cc3cccn3-c3nnc(N4CCN(C5CCCCC5)CC4)s3)CC2)cc1 [NCGC00127052-01] | 11.9 µM |
| Cc1cccc(C)c1-n1ncc(C(=O)NCCCN2CCC(C)CC2)c1C1CCN(C(=O)OC(C)(C)C)CC1 [NCGC00127064-01] | 15 µM |
| CC(C)(C)OC(=O)N1CCC(c2c(C(=O)NCCN3CCc4ccccc4C3)cnn2-c2ccc(F)cc2F)CC1 [NCGC00127087-01] | 5.31 µM |
| Cc1cc(C)c(CN2C(=O)c3ccccc3[S+](=O)([O-])c3ccc(C(=O)OCC4CCCO4)cc32)c(C)c1 (stereo not drawn) [NCGC00127808-01] | 6.68 µM |
| COc1cc(NC(=O)CSc2nc(-c3ccccc3)no2)cc(OC)c1 [NCGC00127876-01] | 2.37 µM |
| O=C(CSc1nc(-c2ccccc2)no1)N1CCN(c2ccc(F)cc2)CC1 [NCGC00127880-01] | 4.22 µM |
| COc1ccccc1N1CCN(C(=O)CSc2nc(-c3ccc(C(C)C)cc3)no2)CC1 [NCGC00127900-01] | 0.376 µM |

| SMILES | AC50 |
| --- | --- |
| CCN(C(=O)CSc1nc(-c2ccc(C(C)C)cc2)no1)c1cccc(C)c1 [NCGC00127902-01] | 1.06 µM |
| CCN(C(=O)CSc1nc(-c2ccc(C(C)C)cc2)no1)c1ccccc1 [NCGC00127904-01] | 0.944 µM |
| CC1CCN(C(=O)CSc2nc(-c3ccc(C(C)C)cc3)no2)CC1 [NCGC00127906-01] | 1.19 µM |
| COc1cc(NC(=O)CSc2nc(-c3ccc(C(C)C)cc3)no2)cc(OC)c1 [NCGC00127914-01] | 0.841 µM |
| CC(C)c1ccc(-c2noc(SCC(=O)N(C)c3ccc(F)cc3)n2)cc1 [NCGC00127932-01] | 0.944 µM |
| CC(C)c1ccc(-c2noc(SCC(=O)N3CCN(c4ccc(F)cc4)CC3)n2)cc1 [NCGC00127934-01] | 0.668 µM |
| COc1ccc(N2CCN(C(=O)CSc3nc(-c4ccc(C(C)C)cc4)no3)CC2)cc1 [NCGC00127936-01] | 0.531 µM |
| CCc1cccc(-n2c(=O)c3cccnc3n2CC(=O)Nc2ccc(F)c(C)c2)c1 [NCGC00128424-01] | 2.66 µM |
| CCc1cccc(NC(c2nnc(-c3ccccc3)o2)c2ccc(F)cc2Cl)c1 (stereo not drawn) [NCGC00129460-01] | 6.68 µM |
| COCCc1nn2c(=O)cc(COC(=O)C(c3ccccc3)c3ccccc3)nc2s1 [NCGC00129785-01] | 2.66 µM |
| Cc1oc(-c2ccc(Cl)cc2)nc1Cn1c(=O)cc(-c2ccccc2)c2c(C)nn(C)c21 [NCGC00130157-01] | 9.44 µM |
| CCc1ccc(-c2nn(CC(=O)NC3CCCCC3)c3c2cnc2ccc(OC)cc23)cc1 [NCGC00130391-01] | 9.44 µM |
| CCCc1nn2c(=O)cc(COC(=O)c3cccc(NC(=O)COc4ccccc4C)c3)nc2s1 [NCGC00130805-01] | 13.3 µM |
| CCOC(=O)c1ccc2c(c1)N(CC(=O)N(C)c1ccccc1)C(=O)c1ccccc1S2 [NCGC00132027-01] | 10.6 µM |
| CCOC(=O)c1ccc2c(c1)N(C(CC)C(=O)Nc1ccccc1OC)C(=O)c1ccccc1S2 (stereo not drawn) [NCGC00132065-01] | 9.44 µM |
| Cc1ccc(C)c(N2CCN(C(=O)c3cc([S+](=O)([O-])N4CCCCCC4)cn3C)CC2)c1 [NCGC00132413-01] | 10.6 µM |
| Cc1cc(C)c(/C=C/c2onc(C)c2[S+](=O)([O-])N2CCC(C(=O)Nc3ccc(Cl)c(C(F)(F)F)c3)CC2)c(C)c1 [NCGC00132732-01] | 10.6 µM |
| COc1ccccc1Cc1nc2ccccc2nc1SCC(=O)NCc1ccccc1Cl [NCGC00133705-01] | 2.11 µM |
| COc1cccc(-c2nn3c(=O)cc(CN4CCN([S+](=O)([O-])c5ccc(C)cc5)CC4)nc3s2)c1 [NCGC00134088-01] | 8.41 µM |
| COc1ccc(-c2cc3ccc(O)c(CN4CCCC(C)C4)c3oc2=O)cc1 (stereo not drawn) [NCGC00134281-01] | 2.37 µM |
| CCOc1cc(C(=O)N2CCc3c([nH]c4ccccc34)C2c2ccccc2)cc(OCC)c1OCC (stereo not drawn) [NCGC00134525-01] | 7.5 µM |
| CCOC(=O)c1[nH]c(C)c(CCC(=O)N2CCN(c3cc(C)ccc3C)CC2)c1C [NCGC00134586-01] | 1.33 µM |
| CCOc1cccc(C2c3[nH]c4ccccc4c3CCN2C(=O)CSCc2ccc(F)cc2)c1 (stereo not drawn) [NCGC00134633-01] | 15 µM |
| O=c1oc2c(CN3CCOCC3)c(O)ccc2cc1-c1ccccc1 [NCGC00135757-01] | 9.44 µM |
| COc1ccc2nc(N(Cc3cccnc3)C(=O)CCc3ccccc3)sc2c1 [NCGC00136611-01] | 6.68 µM |

| SMILES | AC50 |
| --- | --- |
| COc1ccc(-c2nc3sc(CCNC(=O)c4ccc(C(C)(C)C)cc4)c(C)n3n2)cc1 [NCGC00137079-01] | 2.11 µM |
| CC(=O)C1=C(c2ccccc2)N(C(C)=O)n2c(nnc2C2CCCCC2)S1 [NCGC00137174-01] | 4.22 µM |
| CC(=O)C1=C(c2ccc(Cl)cc2)N(C(C)=O)n2c(nnc2C2CCCCC2)S1 [NCGC00137192-01] | 4.73 µM |
| CC(=O)C1=C(c2ccc(Br)cc2)N(C(C)=O)n2c(nnc2C2CCCCC2)S1 [NCGC00137196-01] | 2.99 µM |
| CCC(=O)C1=C(c2ccccc2)N(C(=O)CC)n2c(nnc2-c2ccccc2)S1 [NCGC00137198-01] | 5.96 µM |
| CCC(=O)C1=C(c2ccc(OC)c(OC)c2)N(C(=O)CC)n2c(CC)nnc2S1 [NCGC00137256-01] | 4.73 µM |
| COc1ccc(C2=C(C(C)=O)Sc3nnc(-c4ccc(Cl)cc4)n3N2C(C)=O)cc1OC [NCGC00137262-01] | 3.76 µM |
| CCC(=O)C1=C(c2cccc([N+](=O)[O-])c2)N(C(=O)CC)n2c(nnc2C2CCCCC2)S1 [NCGC00137266-01] | 1.88 µM |
| CCC(=O)C1=C(c2cccc([N+](=O)[O-])c2)N(C(=O)CC)n2c(nnc2-c2ccccc2)S1 [NCGC00137270-01] | 5.31 µM |
| COc1cccc(C2=C(C(C)=O)Sc3nnc(C4CCCCC4)n3N2C(C)=O)c1 [NCGC00137294-01] | 4.73 µM |
| O=[N+]([O-])c1ccc([S+](=O)([O-])N2CCn3cccc3C2c2ccc(Br)cc2)cc1 (stereo not drawn) [NCGC00137374-01] | 5.96 µM |
| CCOC(=O)c1cnn(-c2ccc(C(=O)Nc3ccc(C(C)=O)cc3)cc2)c1N [NCGC00137680-01] | 4.73 µM |
| COC(=O)c1cnn(-c2ccc(C(=O)Nc3ccc(OC(F)(F)F)cc3)cc2)c1N [NCGC00137710-01] | 4.73 µM |
| Cc1cccc(C(=O)N2CCc3cc(CNC(=O)c4ccc(Br)o4)ccc32)c1 [NCGC00137781-01] | 9.44 µM |
| CCOc1cccc(CC(=O)Nc2ccc3nc(N4CCCCC4)cc(C)c3c2)c1OCC [NCGC00137846-01] | 6.68 µM |
| CCOC(=O)c1c(C)[nH]c(C)c1[S+](=O)([O-])N1CCCC(C(=O)N2CCN(c3cccc(C)c3C)CC2)C1 (stereo not drawn) [NCGC00138103-01] | 1.33 µM |
| CCOC(=O)c1c([S+](=O)([O-])N2CCCC(C(=O)N3CCN(c4cc(C)ccc4C)CC3)C2)c(C)n(C)c1C (stereo not drawn) [NCGC00138145-01] | 1.5 µM |
| O=C(NCCC1=CCCCC1)c1ccc2c(=O)n3nc(Nc4ccccc4)sc3nc2c1 [NCGC00138829-01] | 4.73 µM |
| Cc1ccccc1CN1C(=O)CN=C(c2ccccc2)c2cc(Cl)ccc21 [NCGC00140581-01] | 16.8 µM |
| CCc1ccc(NC(=O)CSc2nc3[nH]nc(C)c3c(=N)n2-c2ccc(C)cc2)cc1 [NCGC00140694-01] | 6.68 µM |
| COc1ccccc1N1CCN(C(=O)C2CCCN(S(=O)(=O)c3ccc4c(c3)oc(=O)n4C)C2)CC1 (stereo not drawn) [NCGC00140732-01] | 5.96 µM |
| CCOC(=O)c1cccc(NC(=O)CCn2c(-c3ccc(F)cc3)cc(C(=O)OCC)c2C)c1 [NCGC00140860-01] | 0.075 µM |
| CCOC(=O)c1cc(-c2ccc(OC)cc2)n(CCC(=O)Nc2cccc(C(C)=O)c2)c1C [NCGC00140940-01] | 0.211 µM |
| CCOC(=O)c1sc(NC(=O)c2nc3ncccn3n2)c(C(=O)OC(C)C)c1C [NCGC00141358-01] | 2.66 µM |
